Experimental findings from patent publication US8975415B2, “Chromane compounds” (CoMentis, Inc., priority 2012, dated 2015) are described below.

Assay [1] deals with T1, BACE1 (Homo sapiens (Human), UniProt P56817). Kind of assay: Measurement of Aβ production inhibition in cell (SK-N-BE(2) neuroblastoma cells, Aβ40 ELISA). Particulars: Test Example 3 IC50, Aβ40 production, SK-N-BE(2) cells, 6 hours. Background: In an ELISA, binding on a coated surface is turned into a signal by an enzyme label.
Target sequence in this assay (P56817 46-501): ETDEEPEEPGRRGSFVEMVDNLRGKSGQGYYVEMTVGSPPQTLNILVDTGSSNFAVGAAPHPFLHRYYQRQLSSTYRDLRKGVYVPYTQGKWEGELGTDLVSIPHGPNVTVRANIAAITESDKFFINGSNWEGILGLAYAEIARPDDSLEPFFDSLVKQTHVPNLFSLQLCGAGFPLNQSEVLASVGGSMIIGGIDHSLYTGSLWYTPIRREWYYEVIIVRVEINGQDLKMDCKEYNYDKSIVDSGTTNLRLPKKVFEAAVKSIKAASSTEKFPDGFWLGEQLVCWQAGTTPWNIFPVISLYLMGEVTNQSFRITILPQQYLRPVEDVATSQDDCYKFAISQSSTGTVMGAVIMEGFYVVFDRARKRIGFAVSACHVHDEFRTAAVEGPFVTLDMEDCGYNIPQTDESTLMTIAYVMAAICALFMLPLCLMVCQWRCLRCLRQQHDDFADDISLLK
Assay [2] concerns the target T1, BACE1. Kind of assay: Measurement of BACE1 inhibition by fluorescence resonance energy transfer (FRET), MCA substrate. Particulars: FRET; for pKi: read-out: Test Example 1 BACE1 MCA Ki, MCA substrate; for pIC50: read-out: Test Example 1 IC50, MCA-SEVNLDAEFK(DNP)-NH2 substrate, pH 4.4.
Target sequence in this assay (P56817 75-416): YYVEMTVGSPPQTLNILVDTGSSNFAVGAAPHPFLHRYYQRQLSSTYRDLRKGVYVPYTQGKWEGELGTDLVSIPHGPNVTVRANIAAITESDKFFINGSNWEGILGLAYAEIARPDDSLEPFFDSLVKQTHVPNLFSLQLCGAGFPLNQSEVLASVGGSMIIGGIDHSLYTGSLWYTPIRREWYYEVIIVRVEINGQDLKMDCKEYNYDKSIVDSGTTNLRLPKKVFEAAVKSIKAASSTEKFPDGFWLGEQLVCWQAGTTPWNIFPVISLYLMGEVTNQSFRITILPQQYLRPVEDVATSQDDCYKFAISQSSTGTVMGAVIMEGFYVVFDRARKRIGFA

pIC50, pKi: −log10 of the molar value.

What is called pIC50 is the IC50 on a negative log10 scale, so that one unit is a factor of ten. The pKi is the Ki on a negative log10 scale, so that one unit is a factor of ten. `NC1=NC2(CO1)c1cc(NC(=O)c3ccc(F)cn3)ccc1OCC21CC1` (stereo not drawn) [RP 31, N-(2″-aminodispiro[cyclopropane-1,3′-chromene-4′,4″-[1,3]oxazol]-6′-yl)-5-fluoropyridine-2-carboxamide] gave a pIC50 on BACE1 [1] of 7.21. In addition, on BACE1 [2], the negative-log Ki (pKi) was 5.99 and the pIC50 was 5.97.
Consider `COc1cccc(-c2ccc3c(c2)C2(COC(N)=N2)C2(COC2)C2(CCC2)O3)c1F` (stereo not drawn) [RP 137], for which the pIC50 was 6.08 against BACE1 [1] and 6.11 on BACE1 [2].
On the same counts, the results for `CCOc1cc(-c2ccc3c(c2)C2(COC(N)=N2)C2(COC2)C2(CCC2)O3)cc(C(F)(F)F)c1` (stereo not drawn) [RP 129] are 5.14 and 5.66.
Taken in the same sequence, the figures for `NC1=NC2(CO1)c1cc(-c3cncc(Cl)c3)ccc1OCC21CC1` (stereo not drawn) [RP 107] were 6.34 and 5.97.
`CC#Cc1cncc(-c2ccc3c(c2)C2(COC(N)=N2)C2(COC2)C2(CCC2)O3)c1` (stereo not drawn) [RP 109]: the results for the pIC50 at BACE1 [1] and at BACE1 [2] were 7.32 and 6.82, respectively. Also, the pKi on BACE1 [2] is 6.92.
In the case of `CC1(C)Oc2ccc(-c3cc(Cl)cnc3Cl)cc2C2(COC(N)=N2)C12COC2` (stereo not drawn) [RP 152], the pIC50 against BACE1 [1] was 6.96; at BACE1 [2], 6.16.
With `N#C/C=C/c1cccc(-c2ccc3c(c2)C2(COC(N)=N2)C2(COC2)C2(CCC2)O3)c1` (stereo not drawn) [RP 132], the values for the pIC50 on BACE1 [1] and at BACE1 [2] were 5.92 and 5.61, respectively.
As to `NC1=NC2(CO1)c1cc(-c3cccc(F)c3)ccc1OC1(CCC1)C21COC1` (stereo not drawn) [RP 125], the pIC50 was 6.24 against BACE1 [1] and 5.64 on BACE1 [2].
Taken in the same sequence, the figures for `CCC1Oc2ccc(-c3cncnc3)cc2C2(COC(N)=N2)C12COC2` (stereo not drawn) [RP 87] were 6.37 and 5.81.
`CC1(C)Oc2ccc(-c3cc(F)cc(Cl)c3)cc2C2(COC(N)=N2)C12COC2` (stereo not drawn) [RP 146, 6′-(3-chloro-5-fluorophenyl)-2′,2′-dimethyldispiro[1,3-oxazole-4,4′-chromene-3′,3″-oxetan]-2-amine]: the negative logarithm of the IC50 (pIC50) at BACE1 [1] was 6.68. Besides, on BACE1 [2], the negative logarithm of the Ki (pKi) was 6.73 and the pIC50 is 6.65.
With `CCOc1cccc(-c2ccc3c(c2)C2(COC(N)=N2)C2(COC2)C(C)(C)O3)c1` (stereo not drawn) [RP 144], the pIC50 against BACE1 [1] was 6.34; on BACE1 [2] it was 6.06.
Turning to `CC1(C)Oc2ccc(-c3cccc(Cl)c3)cc2C2(COC(N)=N2)C12COC2` (stereo not drawn) [RP 139], the pIC50 against BACE1 [1] is 6.85. Besides, at BACE1 [2], the pKi is 6.67 and the pIC50 was 6.60.
Regarding `NC1=NC2(CO1)c1cc(-c3cccc(F)c3F)ccc1OC1(CCC1)C21COC1` (stereo not drawn) [RP 138], the pIC50 was 5.82 against BACE1 [1] and 5.78 on BACE1 [2].
With `CCC(CC)Cc1ccc2c(c1)C1(COC(N)=N1)C1(COC1)C1(CCC1)O2` (stereo not drawn) [RP 47], the results for the pIC50 against BACE1 [1] and on BACE1 [2] were 5.85 and 5.63, respectively.
As for `CC1(C)Oc2ccc(-c3cc(F)cnc3Cl)cc2C2(COC(N)=N2)C12COC2` (stereo not drawn) [RP 153], the results for the pIC50 against BACE1 [1] and at BACE1 [2] were 6.89 and 5.95, respectively.
Turning to `CC1(C)Oc2ccc(-c3cccc(C(F)(F)F)c3)cc2C2(COC(N)=N2)C12COC2` (stereo not drawn) [RP 141], the values for the negative-log IC50 (pIC50) against BACE1 [1] and on BACE1 [2] were 5.89 and 6.04, respectively.
As for `COc1ccc(F)c(-c2ccc3c(c2)C2(COC(N)=N2)C2(COC2)C2(CCC2)O3)c1` (stereo not drawn) [RP 136, 6′-(2-fluoro-5-methoxyphenyl)trispiro[cyclobutane-1,2′-chromene-4′,4″-[1,3]oxazole-3′,3′″-oxetan]-2″-amine], the negative-log IC50 (pIC50) on BACE1 [1] was 6.18; at BACE1 [2], 6.20.
Regarding `CCOc1cccc(-c2ccc3c(c2)C2(COC(N)=N2)C2(COC2)C2(CCC2)O3)c1` (stereo not drawn) [RP 131], the pIC50 was 5.49 against BACE1 [1] and 5.69 on BACE1 [2].
`CC#Cc1cncc(-c2ccc3c(c2)C2(COC(N)=N2)C2(COC2)C(CCC(F)(F)F)O3)c1` (stereo not drawn) [RP 96]: the pIC50 on BACE1 [1] was 7.66; on BACE1 [2], 6.90. Also, the negative-log Ki (pKi) on BACE1 [2] was 6.06.
With `NC1=NC2(CO1)c1cc(-c3cncc(OC(F)F)c3)ccc1OCC21CC1` (stereo not drawn) [RP 60], the pIC50 on BACE1 [1] is 6.80; on BACE1 [2], 5.83.
